This is an account of results in US20240059685A1, “PIEZO1 AGONISTS FOR THE PROMOTION OF BONE FORMATION” (BIOVENTURES, LLC, priority 2019, published 2024).

Holding throughout (format): cell-based, murine
The target of test [1] is T1, Piezo1 (Mus musculus, UniProt E2JF22).
T1 construct: To identify Piezo1 stimulators, we treated MLO-Y4 cells with compounds; endogenous in cells; host or cells: MLO-Y4 (murine osteocyte-like cell line); control sh-Luc cells, with sh-Piezo1 knock-down cells as the specificity control
Nature of the test: Intracellular calcium concentration (Fluo-8) in control or Piezo1 knock-down MLO-Y4 cells. The note with it: Piezo1 knock-down (sh-Piezo1) MLO-Y4 cells, 10 μM. The method, then:
Calcium concentration measurement. For intracellular calcium concentration measurement under fluid flow condition, 1×10^5 MLO-Y4 cells were seeded in a μ-Slide I Luer (0.4 mm) fluid chamber slide (MIDI, Germany) overnight. One hour before initiating fluid flow, the culture medium was removed and 100 μl Hank's Buffer with Hepes (HHBS) containing 4μM Fluo-8 (Abcam, Cambridge, MA) was added to the culture, as described by the manufacturer. The cells were then cultured at 37° C. for 30 minutes. After additional incubation at room temperature for 30 minutes, the chamber slide was placed under a confocal microscope in order to record the intensity of fluorescence of MLO-Y4 cells. Fluorescence was recorded for 3 minutes before starting fluid flow using HHBS and then recorded for another 10 minutes. The increase of intracellular concentration was calculated by subtracting the initial mean fluorescence. For measuring intracellular calcium concentration in cells with Yoda1 treatment, we cultured 4,000 MLO-Y4 cells per well in a 96-well-plate. We preloaded the cells with Fluo-8 as described by the manufacturer and read the intensity of the fluorescence using a Victor X3 multi-label plate reader (Perkin Elmer, Waltham, MA) immediately after the treatment. We measured the fluorescence for 5 minutes at an interval of 20 seconds. The percentage of increase in intracellular calcium concentration was calculated as (Fx-F0)/F0.
(§1) To identify Piezo1 stimulators, we treated MLO-Y4 cells with compounds Yoda1, YW-3-159, W-3-163, W-3-168-1, W-3-168-2, W-3-170, W-3-173-1, W-3-173-2, and YW-3-174. Gene expression of Wnt1, Ptgs2, and Tnfrsf11b was measured to determine the activation of Piezo1. In addition, intracellular calcium concentration was measured to determine the activity of Piezo1 channel. […] Yoda1 was used as a positive control in all experiments.

Test [2] addresses T1, Piezo1. Nature of the test: qPCR gene expression of Wnt1, Ptgs2 and Tnfrsf11b in MLO-Y4 cells. The settings on record: MLO-Y4 cells, 10 μM, 2 hours. How it is done: Cell cultures. MLO-Y4 cells were cultured in α-MEM supplemented with 5% FBS, 5% BCS, and 1% penicillin/streptomycin/glutamine. Fifteen dynes/cm^2 oscillatory fluid shear stress was applied on MLO-Y4 cells at 1 Hz for 2 hours using an IBDI pump system (IBIDI, German). For Yoda1 treatment, cells were cultured in the presence of 10 μM Yoda1 (Sigma, St. Louis, MO) or DMSO for 2 hours. Immediately after the treatments, we isolated RNA from cells using RNeasy mini kit (Qiagen, German) for qPCR or RNA-seq analysis. To silence Piezo1, we generated Piezo1 shRNA expression plasmid using the following oligonucleotides in the pLKO.1-TRC cloning vector (Addgene Plasmid #10878, a gift from David Root): forward oligo: 5′-CCGGTC-[…]-3′ (SEQ ID NO: 1); reverse oligo: 5′-[…]-CGA-3′ (SEQ ID NO: 2) (Zhang et al., 2017). Yap1 shRNA (TRCN0000238432) and Taz shRNA (TRCN0000095951) were purchased from Sigma (St. Louis, MO). A shRNA against firefly luciferase was used as a control (Sigma, St. Louis, MO). For virus production, HEK293T cells were cultured in a 6-well culture plate and co-transfected with a total 3 μg of lentiviral shRNA vector, pMD2G (Addgene plasmid #12259, a gift from Didier Trono), and psPAX2 (Addgene plasmid #12260, a gift from Didier Trono) at the ratio of 2:0.9:0.4 using TransIT-LT1 transfection reagent (Mirus, Madison, WI). Culture media was changed 12 hours after transfection and viral supernatants were collected 48 hours after media change. Viral supernatants were filtered through a 0.45 μm filter and used immediately to transduce cells cultured in a 10 cm dish. Cells were then subjected to selection with G418 (100 μg/ml) or puromycin (25 μg/ml) for 5 days before treatment. To overexpress Piezo1 in MLO-Y4 cells, we transfected mPiezo1-IRES-eGFP (Addgene plasmid #80925, a gift from Ardem Patapoutian) into MLO-Y4 cells using TransIT-LT1 transfection reagent (Mirus, Madison, WI) and then treated these cells with 15 dynes/cm^2 oscillatory fluid shear stress at 1 Hz for 2 hours. Plasmids for expression of Cas9 and sgRNAs for knocking out Piezo1 in UAMS-32 cells were prepared by inserting oligonucleotides encoding the desired sgRNA sequence into the pX458 vector using the protocol recommended by the Zhang laboratory (Cong et al., 2013). Plasmids expressing Cas9 and Piezo1 sgRNAs were transfected into UAMS-32 cells using TransIT-LT1 transfection reagent (Mirus, Madison, WI). Cells were sorted into 96-well plates for single cell cloning 48 hours after transfection. Single cell colonies were then screened for homozygous deletion using the following primers: Forward: 5′-[…]-3′ (SEQ ID NO: 5), Reverse: 5′-[…]-3′ (SEQ ID NO: 6). All homozygous mutant cell colonies were then pooled together for further analysis. Cas9 transfected cells were used as a control. All in vitro cell culture experiments were performed three times with three technical replicates.
Quantitative PCR. Organs and whole bones were harvested from animals, removed of soft tissues, and stored immediately in liquid nitrogen. We prepared osteocyte-enriched bone by removing the ends of femurs and tibias and then flushing the bone marrow with PBS. We then scraped the bone surface with a scalpel and froze them in liquid nitrogen for later RNA isolation, or decalcified them for genomic DNA isolation. We isolated total RNA using TRIzol (Life technologies, NY), according to the manufacturer's instructions and prepared cDNA using High Capacity first strand cDNA synthesis kit (Life Technologies). We performed quantitative RT-PCR using the following Taqman assays from Applied Biosystems: Piezo1 (Mm01241549_m1); Piezo2 (Mm01265861_m1); Ptgs2 (Mm00478374_m1); Cyr61 (Mm00487498_m1); Wnt1 (Mm01300-555_g1); Yap1 (Mm011432-63_m1); Taz (Mm01289583_m1); Tnfsf11 Mm00441906_m1; Tnfrsf11b (Mm00435452_m1); Sost (Mm00470479_m1); and ribosomal protein S2 (Mrps2) (Mm00475529_m1). We calculated relative mRNA amounts using the ΔCt method (Livak and Schmittgen, 2001). […]

Test [3] deals with T1, Piezo1. Nature of the test: Activation of Piezo1 in MLO-Y4 cells, overall conclusion from gene expression and calcium influx. The method, then:
as §1

“Also recorded” adds a separate entry of the source.

T1 sequence (E2JF22 whole entry): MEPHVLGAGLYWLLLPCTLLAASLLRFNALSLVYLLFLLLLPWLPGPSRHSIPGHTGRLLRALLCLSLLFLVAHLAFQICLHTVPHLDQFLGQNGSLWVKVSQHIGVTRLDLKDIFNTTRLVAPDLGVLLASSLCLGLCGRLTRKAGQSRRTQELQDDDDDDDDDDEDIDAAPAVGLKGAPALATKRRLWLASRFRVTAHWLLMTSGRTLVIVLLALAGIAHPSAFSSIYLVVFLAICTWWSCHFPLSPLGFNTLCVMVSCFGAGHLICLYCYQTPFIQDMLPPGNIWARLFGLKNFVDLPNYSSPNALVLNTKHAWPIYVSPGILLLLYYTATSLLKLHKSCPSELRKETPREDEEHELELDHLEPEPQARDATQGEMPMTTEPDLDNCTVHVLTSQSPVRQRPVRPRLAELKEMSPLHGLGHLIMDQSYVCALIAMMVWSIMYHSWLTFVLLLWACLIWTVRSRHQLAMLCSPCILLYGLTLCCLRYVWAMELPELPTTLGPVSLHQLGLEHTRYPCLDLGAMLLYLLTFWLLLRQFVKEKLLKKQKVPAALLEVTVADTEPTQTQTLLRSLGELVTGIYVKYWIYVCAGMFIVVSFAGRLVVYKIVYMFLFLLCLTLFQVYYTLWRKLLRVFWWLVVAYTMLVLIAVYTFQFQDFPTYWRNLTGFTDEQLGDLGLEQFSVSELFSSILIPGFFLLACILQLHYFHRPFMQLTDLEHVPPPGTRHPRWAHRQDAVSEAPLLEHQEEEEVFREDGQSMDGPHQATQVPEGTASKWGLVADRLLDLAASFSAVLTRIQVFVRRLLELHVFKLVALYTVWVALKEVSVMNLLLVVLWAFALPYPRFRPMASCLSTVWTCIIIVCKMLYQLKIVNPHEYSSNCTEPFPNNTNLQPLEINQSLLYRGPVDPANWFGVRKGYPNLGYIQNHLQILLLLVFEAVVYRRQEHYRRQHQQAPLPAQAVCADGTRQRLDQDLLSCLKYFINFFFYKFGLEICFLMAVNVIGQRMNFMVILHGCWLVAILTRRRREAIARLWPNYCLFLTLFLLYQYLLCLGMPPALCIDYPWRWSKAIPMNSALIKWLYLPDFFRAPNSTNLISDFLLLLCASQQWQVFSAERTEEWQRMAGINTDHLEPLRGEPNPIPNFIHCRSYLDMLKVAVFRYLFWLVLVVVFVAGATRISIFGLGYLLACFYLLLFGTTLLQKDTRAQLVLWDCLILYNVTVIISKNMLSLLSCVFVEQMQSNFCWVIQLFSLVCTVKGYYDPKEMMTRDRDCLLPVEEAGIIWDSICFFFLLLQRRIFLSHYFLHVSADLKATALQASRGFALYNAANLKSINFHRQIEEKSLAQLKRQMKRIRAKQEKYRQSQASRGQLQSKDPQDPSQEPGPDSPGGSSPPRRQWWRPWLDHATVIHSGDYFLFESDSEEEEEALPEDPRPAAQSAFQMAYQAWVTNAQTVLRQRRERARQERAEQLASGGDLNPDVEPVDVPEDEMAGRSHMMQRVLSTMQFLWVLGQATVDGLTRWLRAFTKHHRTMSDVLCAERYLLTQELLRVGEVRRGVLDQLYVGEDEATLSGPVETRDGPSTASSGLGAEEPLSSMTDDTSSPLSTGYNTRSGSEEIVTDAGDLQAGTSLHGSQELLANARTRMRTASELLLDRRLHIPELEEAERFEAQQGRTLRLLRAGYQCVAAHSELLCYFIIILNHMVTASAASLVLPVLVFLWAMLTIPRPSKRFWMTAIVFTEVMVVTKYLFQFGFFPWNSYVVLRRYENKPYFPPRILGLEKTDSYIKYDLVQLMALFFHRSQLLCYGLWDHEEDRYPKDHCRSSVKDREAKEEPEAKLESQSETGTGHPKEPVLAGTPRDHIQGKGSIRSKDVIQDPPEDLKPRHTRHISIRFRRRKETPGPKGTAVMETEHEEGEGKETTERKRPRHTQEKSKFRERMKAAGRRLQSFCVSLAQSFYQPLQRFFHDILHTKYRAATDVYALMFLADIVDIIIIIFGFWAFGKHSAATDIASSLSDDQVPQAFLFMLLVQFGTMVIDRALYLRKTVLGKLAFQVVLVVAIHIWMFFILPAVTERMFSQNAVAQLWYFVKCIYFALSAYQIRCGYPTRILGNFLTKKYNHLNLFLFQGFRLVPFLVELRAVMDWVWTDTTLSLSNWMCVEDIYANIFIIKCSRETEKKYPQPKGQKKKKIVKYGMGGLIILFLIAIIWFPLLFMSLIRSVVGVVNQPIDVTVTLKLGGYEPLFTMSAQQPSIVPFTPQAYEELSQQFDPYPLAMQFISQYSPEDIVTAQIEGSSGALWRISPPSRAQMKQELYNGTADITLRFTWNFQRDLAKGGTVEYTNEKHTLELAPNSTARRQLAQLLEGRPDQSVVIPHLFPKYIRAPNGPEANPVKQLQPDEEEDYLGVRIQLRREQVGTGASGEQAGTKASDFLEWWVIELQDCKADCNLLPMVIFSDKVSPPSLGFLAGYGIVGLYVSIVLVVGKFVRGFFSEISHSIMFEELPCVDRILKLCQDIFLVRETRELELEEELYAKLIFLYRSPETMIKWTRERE

Consider `Clc1ccnc(Cl)c1CSc1nnc(-c2cnccn2)s1` [YW-3-159], for which, in test [1], the “calcium influx / increase of intracellular calcium in Piezo1 knock-down cells” value was “completely blocked; also recorded: loss of their ability to stimulate calcium influx”. In addition, in test [2], the “Ptgs2 expression compared with vehicle” value was “higher Ptgs2 expression”, the “Tnfrsf11b expression compared with vehicle” value is given as “higher Tnfrsf11b expression” and the “Wnt1 expression compared with vehicle” value is given as “higher Wnt1 expression”. In test [3] (MLO-Y4 cells), the “Piezo1 agonist activity (conclusion in words)” value is “potent agonists for Piezo1; also recorded: potent and specific Piezo1 agonists”. Besides, the “activity in activating Piezo1 compared to Yoda1” value in test [3] (MLO-Y4 cells in vitro) is given as “comparable or superior activity”.
